Measurements taken from ChEMBL document CHEMBL6078622, “Enhancing outer membrane permeability of tetracycline antibiotics in P. aeruginosa using TOB-CIP conjugates” (RSC Med Chem, 2024).

Key:
Pseudomonas aeruginosa [1] = assay: Synergistic antibacterial activity against Pseudomonas aeruginosa PA259 assessed as fractional inhibitory concentration index in presence of minocycline by checkerboard assay; assay type: functional
Pseudomonas aeruginosa [2] = assay: Synergistic antibacterial activity against Pseudomonas aeruginosa PA095 in presence of tigecycline by checkerboard assay; assay type: functional
Pseudomonas aeruginosa [3] = assay: Synergistic antibacterial activity against Pseudomonas aeruginosa PA100036 assessed as fractional inhibitory concentration index in presence of minocycline by checkerboard assay; assay type: functional
Pseudomonas aeruginosa [4] = assay: Synergistic antibacterial activity against Pseudomonas aeruginosa PA262 in presence of eravacycline by checkerboard assay; assay type: functional
Pseudomonas aeruginosa [5] = assay: Antibacterial activity against Pseudomonas aeruginosa PA264 assessed as tigecycline MIC by CLSI based broth-microdilution method; assay type: functional
Pseudomonas aeruginosa [6] = assay: Synergistic antibacterial activity against Pseudomonas aeruginosa PA100036 assessed as fold change in minocycline MIC by CLSI based broth-microdilution method relative to minocycline alone; assay type: functional
Pseudomonas aeruginosa [7] = assay: Synergistic antibacterial activity against Pseudomonas aeruginosa PA262 assessed as fractional inhibitory concentration index in presence of tigecycline by checkerboard assay; assay type: functional
Pseudomonas aeruginosa [8] = assay: Synergistic antibacterial activity against Pseudomonas aeruginosa PA259 in presence of eravacycline by checkerboard assay; assay type: functional
HepG2 = assay: Cytotoxicity against human HepG2 cells assessed as inhibition of cell vitality at 162 uM; assay type: functional; design: scale not given: the % may be the effect or the level left
Pseudomonas aeruginosa [9] = assay: Synergistic antibacterial activity against Pseudomonas aeruginosa PA095 in presence of doxycycline by checkerboard assay; assay type: functional
Pseudomonas aeruginosa [10] = assay: Antibacterial activity against Pseudomonas aeruginosa PA262 assessed as tigecycline MIC by CLSI based broth-microdilution method; assay type: functional
Pseudomonas aeruginosa [11] = assay: Synergistic antibacterial activity against Pseudomonas aeruginosa PA262 assessed as fractional inhibitory concentration index in presence of doxycycline by checkerboard assay; assay type: functional
Pseudomonas aeruginosa [12] = assay: Synergistic antibacterial activity against Pseudomonas aeruginosa PA095 assessed as fractional inhibitory concentration index in presence of eravacycline by checkerboard assay; assay type: functional
Pseudomonas aeruginosa [13] = assay: Synergistic antibacterial activity against Pseudomonas aeruginosa PAO1 assessed as fold change in eravacycline MIC by checkerboard analysis relative to eravacycline alone; assay type: functional
Pseudomonas aeruginosa [14] = assay: Synergistic antibacterial activity against Pseudomonas aeruginosa PA101243 in presence of tigecycline by checkerboard assay; assay type: functional
Pseudomonas aeruginosa [15] = assay: Synergistic antibacterial activity against Pseudomonas aeruginosa PA095 assessed as fold change in minocycline MIC by CLSI based broth-microdilution method relative to minocycline alone; assay type: functional
Pseudomonas aeruginosa [16] = assay: Synergistic antibacterial activity against Pseudomonas aeruginosa PA200 in presence of minocycline by checkerboard assay; assay type: functional
Pseudomonas aeruginosa [17] = assay: Antibacterial activity against Pseudomonas aeruginosa PA262 assessed as doxycycline MIC by CLSI based broth-microdilution method; assay type: functional
Pseudomonas aeruginosa [18] = assay: Synergistic antibacterial activity against Pseudomonas aeruginosa PA100036 in presence of tigecycline by checkerboard assay; assay type: functional
Pseudomonas aeruginosa [19] = assay: Synergistic antibacterial activity against Pseudomonas aeruginosa PA259 assessed as fractional inhibitory concentration index in presence of eravacycline by checkerboard assay; assay type: functional
Pseudomonas aeruginosa [20] = assay: Synergistic antibacterial activity against Pseudomonas aeruginosa PA101243 assessed as fractional inhibitory concentration index in presence of tigecycline by checkerboard assay; assay type: functional
Pseudomonas aeruginosa [21] = assay: Antibacterial activity against Pseudomonas aeruginosa PA095 assessed as doxycycline MIC by CLSI based broth-microdilution method; assay type: functional
Pseudomonas aeruginosa [22] = assay: Antibacterial activity against Pseudomonas aeruginosa PA114228 assessed as doxycycline MIC by CLSI based broth-microdilution method; assay type: functional
Pseudomonas aeruginosa [23] = assay: Synergistic antibacterial activity against Pseudomonas aeruginosa PA200 in presence of tigecycline by checkerboard assay; assay type: functional
Pseudomonas aeruginosa [24] = assay: Synergistic antibacterial activity against Pseudomonas aeruginosa PA101243 assessed as fold change in minocycline MIC by CLSI based broth-microdilution method relative to minocycline alone; assay type: functional
Pseudomonas aeruginosa [25] = assay: Antibacterial activity against Pseudomonas aeruginosa PA264 assessed as eravacycline MIC by CLSI based broth-microdilution method; assay type: functional
Pseudomonas aeruginosa [26] = assay: Synergistic antibacterial activity against Pseudomonas aeruginosa PA262 in presence of tigecycline by checkerboard assay; assay type: functional
Pseudomonas aeruginosa [27] = assay: Synergistic antibacterial activity against Pseudomonas aeruginosa PA101243 assessed as fold change in eravacycline MIC by CLSI based broth-microdilution method relative to eravacycline alone; assay type: functional
Pseudomonas aeruginosa [28] = assay: Antibacterial activity against Pseudomonas aeruginosa PA259 assessed as inhibition of visible bacterial growth by CLSI based broth-microdilution method; assay type: functional
Pseudomonas aeruginosa [29] = assay: Synergistic antibacterial activity against Pseudomonas aeruginosa PA200 assessed as fold change in eravacycline MIC by CLSI based broth-microdilution method relative to eravacycline alone; assay type: functional
Pseudomonas aeruginosa [30] = assay: Synergistic antibacterial activity against Pseudomonas aeruginosa PA200 assessed as fractional inhibitory concentration index in presence of eravacycline by checkerboard assay; assay type: functional
Pseudomonas aeruginosa [31] = assay: Antibacterial activity against Pseudomonas aeruginosa PA259 assessed as doxycycline MIC by CLSI based broth-microdilution method; assay type: functional
Pseudomonas aeruginosa [32] = assay: Synergistic antibacterial activity against Pseudomonas aeruginosa PA095 assessed as fractional inhibitory concentration index in presence of minocycline by checkerboard assay; assay type: functional
Pseudomonas aeruginosa [33] = assay: Synergistic antibacterial activity against Pseudomonas aeruginosa PA264 in presence of doxycycline by checkerboard assay; assay type: functional
Pseudomonas aeruginosa [34] = assay: Synergistic antibacterial activity against Pseudomonas aeruginosa PA114228 assessed as fold change in minocycline MIC by CLSI based broth-microdilution method relative to minocycline alone; assay type: functional
Pseudomonas aeruginosa [35] = assay: Synergistic antibacterial activity against Pseudomonas aeruginosa PA114228 in presence of eravacycline by checkerboard assay; assay type: functional
Pseudomonas aeruginosa [36] = assay: Synergistic antibacterial activity against Pseudomonas aeruginosa PA259 in presence of doxycycline by checkerboard assay; assay type: functional
Pseudomonas aeruginosa [37] = assay: Antibacterial activity against Pseudomonas aeruginosa PA101243 assessed as doxycycline MIC by CLSI based broth-microdilution method; assay type: functional
Pseudomonas aeruginosa [38] = assay: Antibacterial activity against Pseudomonas aeruginosa PAO1 assessed as inhibition of bacterial growth by measuring fold change in MIC in presence of 10 % fetal bovine serum by CLSI protocol based assay; assay type: functional
Pseudomonas aeruginosa [39] = assay: Synergistic antibacterial activity against Pseudomonas aeruginosa PA114228 in presence of tigecycline by checkerboard assay; assay type: functional
Pseudomonas aeruginosa [40] = assay: Synergistic antibacterial activity against Pseudomonas aeruginosa PA100036 assessed as fold change in doxycycline MIC by CLSI based broth-microdilution method relative to doxycycline alone; assay type: functional
HEK293 = assay: Cytotoxicity against HEK293 cells assessed as reduction in cell viability at 7 uM; assay type: toxicity, cell-based; conditions: human, hek293, 7 µM
Pseudomonas aeruginosa [41] = assay: Antibacterial activity against Pseudomonas aeruginosa PA262 assessed as eravacycline MIC by CLSI based broth-microdilution method; assay type: functional
Pseudomonas aeruginosa [42] = assay: Antibacterial activity against Pseudomonas aeruginosa PA262 assessed as minocycline MIC by CLSI based broth-microdilution method; assay type: functional
Pseudomonas aeruginosa [43] = assay: Antibacterial activity against Pseudomonas aeruginosa PA114228 assessed as eravacycline MIC by CLSI based broth-microdilution method; assay type: functional
Pseudomonas aeruginosa [44] = assay: Antibacterial activity against Pseudomonas aeruginosa PA101243 assessed as eravacycline MIC by CLSI based broth-microdilution method; assay type: functional
Pseudomonas aeruginosa [45] = assay: Antibacterial activity against Pseudomonas aeruginosa PA095 assessed as eravacycline MIC by CLSI based broth-microdilution method; assay type: functional

## Cl.Cl.Cl.Cl.Cl.Cl.NC[C@H]1O[C@H](O[C@H]2[C@H](OCCCCCCCCCCCCNC(=O)c3cn(C4CC4)c4cc(N5CCNCC5)c(F)cc4c3=O)[C@@H](O[C@H]3O[C@H](CO)[C@@H](O)[C@H](N)[C@H]3O)[C@H](N)C[C@@H]2N)[C@H](N)C[C@@H]1O
Pseudomonas aeruginosa [1]
  fractional inhibitory concentration index (FICI): 0.002
Pseudomonas aeruginosa [2]
  MIC: 2 mg/L
Pseudomonas aeruginosa [3]
  fractional inhibitory concentration index (FICI): 0.015
Pseudomonas aeruginosa [4]
  MIC: 8 mg/L
Pseudomonas aeruginosa [5]
  MIC: 0.5 mg/L
Pseudomonas aeruginosa [6]
  fold change (FC): 256
Pseudomonas aeruginosa [7]
  fractional inhibitory concentration index (FICI): 0.008
Pseudomonas aeruginosa [8]
  MIC: 8 mg/L
HepG2
  Activity: 40%
Pseudomonas aeruginosa [9]
  MIC: 2 mg/L
Pseudomonas aeruginosa [10]
  MIC: 2 mg/L
Pseudomonas aeruginosa [11]
  fractional inhibitory concentration index (FICI): 0.002
Pseudomonas aeruginosa [12]
  fractional inhibitory concentration index (FICI): 0.265
Pseudomonas aeruginosa [13]
  fold change (FC): 64
Pseudomonas aeruginosa [14]
  MIC: 8 mg/L
Pseudomonas aeruginosa [15]
  fold change (FC): 8
Pseudomonas aeruginosa [16]
  MIC: 8 mg/L
Pseudomonas aeruginosa [17]
  MIC: 8 mg/L
Pseudomonas aeruginosa [18]
  MIC: 8 mg/L
Pseudomonas aeruginosa [19]
  fractional inhibitory concentration index (FICI): 0.008
Pseudomonas aeruginosa [20]
  fractional inhibitory concentration index (FICI): 0.125
Pseudomonas aeruginosa [21]
  MIC: 4 mg/L
Pseudomonas aeruginosa [22]
  MIC: 32 mg/L
Pseudomonas aeruginosa [23]
  MIC: 8 mg/L
Pseudomonas aeruginosa [24]
  fold change (FC): 4
Pseudomonas aeruginosa [25]
  MIC: 0.125 mg/L
Pseudomonas aeruginosa [26]
  MIC: 8 mg/L
Pseudomonas aeruginosa [27]
  fold change (FC): 4
Pseudomonas aeruginosa [28]
  MIC: > 128 mg/L
Pseudomonas aeruginosa [29]
  fold change (FC): 128
Pseudomonas aeruginosa [30]
  fractional inhibitory concentration index (FICI): 0.156
Pseudomonas aeruginosa [31]
  MIC: 0.5 mg/L
Pseudomonas aeruginosa [32]
  fractional inhibitory concentration index (FICI): 0.5
Pseudomonas aeruginosa [33]
  MIC: 8 mg/L
Pseudomonas aeruginosa [34]
  fold change (FC): 512
Pseudomonas aeruginosa [35]
  MIC: 8 mg/L
Pseudomonas aeruginosa [36]
  MIC: 8 mg/L
Pseudomonas aeruginosa [37]
  MIC: 1 mg/L
Pseudomonas aeruginosa [38]
  fold change (FC): >512
Pseudomonas aeruginosa [39]
  MIC: 8 mg/L
Pseudomonas aeruginosa [40]
  fold change (FC): 128
HEK293
  Activity: Non-toxic
Pseudomonas aeruginosa [41]
  MIC: 1 mg/L
Pseudomonas aeruginosa [42]
  MIC: 2 mg/L
Pseudomonas aeruginosa [43]
  MIC: 4 mg/L
Pseudomonas aeruginosa [44]
  MIC: 2 mg/L
Pseudomonas aeruginosa [45]
  MIC: 1 mg/L
